Starred links: 1 amine or outer side, 2 acyl side, 3 side chain; linkers in the order of their positions; H or OH if unused. Residues, ends and D or L forms follow the SMILES beside them. *: point of attachment. AFC = O=c1cc(C(F)(F)F)c2ccc(N*)cc2o1; Morpholide = C1CN(*)CCO1; Cbz = O=C(OCc1ccccc1)*; CO = O=C([*:1])[*:2]; CH2F = FC*
Legend:
[1] = molecular target: purified Taenia solium cysteine protease; experiment: Competitor assay: vehicle inhibition of cleavage of high Vmax AFC substrate cocktails (Step III); assay type: biochemical; settings: preliminary results, in comparison to the battery of substrates
Protocol: (We employed “Vmax” here although Kcat could also be used). Due to the lower number of substrates, a percentage was not chosen for the “BOTTOM %” substrates. Alternately, all substrates which were not cleaved as determined by a value of 10 μM/hr or less, were chosen to be tested in this step for competitive ability. From this point forth, the term “vehicle” will represent low Vmax substrates that were capable of inhibiting cleavage of the percent cocktails. In this instance, we tested for “vehicles” which inhibited cleavage of the TOP 1.4% cocktail (they were delivered into the active site). Based upon our results from Step II, the top 1.4% cocktail was composed of Z-Phe-Arg-AFC, the highest cleaved substrate.
The experiment began with a competitor test between the noncleaved low Vmax substrates and the highest Vmax substrate, Z-Phe-Arg-AFC. Concentrations were varied between the low Vmax substrate and Z-Phe-Arg-AFC, as described above under “refinement of assay” until a relative inhibition profile was obtained.
The mixture was allowed to equilibrate for a period of 30 minutes. Finally, active purified enzyme was added to the tubes at a concentration which was always 50 times less than the concentration of the high and low Vmax substrates, in order to insure saturation conditions. This concentration varied from purification to purification and the amount added depended upon the yield and specific activity of the purified protease.
Positive controls were set up similarly as described for test controls, except that solvent was added in substitution for the low Vmax substrate (in a volume equal to the low Vmax volume addition). All of the substrates could be dissolved in dimethylsulfoxide (DMSO), and therefore, this was the solvent of choice. Negative controls were set up by adding the low Vmax and the high Vmax substrate in a tube without the protease. All potential non-proteolytic induced liberation of AFC was therefore controlled for in this tube (a feature which also insured stability of the AFC substrates, since these substrates will freely liberate AFC when unstable). A tube set will be established for this negative control.
All controls were set up in triplicate, and experiments repeated a minimum of five times. The assays were incubated at 37° C., for 18 hours overnight.
Percent inhibition was calculated as: [formula]
A 2.9% cocktail of the high Vmax substrates was made. This was composed of Z-FR-AFC and the second most cleaved substrate, Z-FAR-AFC. The vehicles promoted from the initial screenings above were again tested for competitive inhibition ability with the new cocktails. Their concentrations were set identically to those which were “fixed” in the previous protocols. […]

T crassiceps cysts = experiment: Therapeutic study in BALB/c mice infected with T crassiceps cysts; assay type: in vivo, Taenia crassiceps; settings: inhibitor treatment began two weeks after infection
From the text: Mice in all groups survived without noticeable side effects (e.g., coat condition, tail dragging or paresis, etc).

[2] = test system: purified Taenia solium cysteine protease; experiment: Protease inactivator inhibition assay (EC100, Ki; Step VII); assay type: biochemical
From the text: Once the protease inactivators were synthesized in the organic laboratory, they were to be tested for the lowest efficacious concentrations at which they induced 100% inhibition of the target protease (EC100). The top percent cocktail that was employed in the final vehicle selection step of Step III was employed as the source of competition for the inhibitors. In this case, this was the […] which was comprised of Z-FR-AFC, Z-FAR-AFC, Z-AP-AFC, Z-AAK-AFC, and Z-VLR-AFC. The final result would be a ranking of transition state candidate protease inactivators with a high ranking directly correlating to a low ECIoo value. The following steps describe the assay:
Step A: Initial Screening. To set up the test control, each protease inactivator was first incubated with the 5% cocktail (which provided the final differentiation of vehicles in Step III). To begin with, the protease inactivator was incubated at a concentration of 3×10^−9M in 500 μl of assay buffer (0.2 M Citrate, pH 4.9 supplemented with 10mM L-cysteine). This concentration was determined, after a series of inhibitor dilutions identified, to be the best inhibitor concentration at which a differentiation in inhibitor potential could be noted. Next, a concentration equal to 4×10^−5M for each of the individual cocktail components, was added to the mix. The components were allowed to equilibrate for a period of 30 minutes. […]
Percent inhibition was calculated as: [formula] […]
Step C: Determination ofInhibitor Ki and mode of inhibition, and re-ranking of EC100 list with inhibitor Ki. Ki of each of the top ranked protease inactivators, based upon low EC100 values, was assessed next for the top 5 EC100 inhibitors.
In order to determine Ki, all of the high Vmax cocktail substrates were employed for Ki determination (since Ki of the inhibitor for the enzyme is the same regardless of the substrate). To insure the highest accuracy, Ki was to be determined upon a minimum of at least three of the high Kcat substrates. […]

Structure (SMILES)	Ki of vehicles (ranking; values not reported) [1]	% Therapeutic protection of BALB/c mice (T crassiceps cysts) [%]	ranking of protease inactivators by inhibition / EC100 [2]
CC(C)C[C@H](NC(=O)N1CCOCC1)C(=O)N[C@@H](Cc1ccc(O)cc1)C(=O)Nc1ccc2c(C(F)(F)F)cc(=O)oc2c1 [Mu-LY-AFC, Mu-Leu-Tyr-AFC] ({Morpholide-CO}-Leu-Tyr-{AFC})	lowest Ki values	–	–
CC(C)C[C@H](NC(=O)[C@H](CC(C)C)NC(=O)[C@H](CC(C)C)NC(=O)OCc1ccccc1)C(=O)CF [Z-LLL-FMK, Z-Leu-Leu-Leu-fluoromethylketone] (Cbz-Leu-Leu-Leu-CH2F)	–	60	top inhibitors
CC(C)C[C@H](NC(=O)OCc1ccccc1)C(=O)N[C@@H](CC(C)C)C(=O)N[C@@H](Cc1ccc(O)cc1)C(=O)CF [Z-LLY-FMK, Z-Leu-Leu-Tyr-FMK] (Cbz-Leu-Leu-Tyr-CH2F)	–	–	top inhibitors

Reference: patent US20030077653A1, “Method for the identification of active site protease inactivators” (The University of Georgia Research Foundation, Inc., priority 2000, published 2003)
